We go through 21 molecules from US20080021069A1, “Receptor Function Regulating Agent” (TAKEDA PHARMACEUTICAL COMPANY LIMITED, priority 2004, published 2008).

The target of one series is T1, human GPR40 (Homo sapiens, UniProt O14842).
T1 construct: expressed in transfected cells; host or cells: CHO(dhfr-) cells: line CHO-hGPR40 No. 104 of WO2004/041266, with a stably expressed NFAT-TA-Luc reporter (CHO(dhfr-)/GPR40-NFAT-Luc)
Kind of series: GPR40 antagonist activity with changes in intracellular calcium concentration as index (NFAT-luciferase reporter, CHO(dhfr-)/GPR40-NFAT-Luc cells). Format: cell-based. The conditions noted are these: CHO cell line expressing human GPR40, NFAT-Luc reporter; GPR40 agonist 3-(4-((6-benzyloxy-2',6'-dimethyl-biphenyl-3-yl)methoxy)phenyl)propanoic acid 40 nM; 4 hr culture; 0.1% fatty acid-free BSA. An excerpt: Evaluation of GPR40 antagonist activity with changes in intracellular calcium concentration as index
An assay system of GPR40 antagonist was established as follows. In this assay system, as the GPR40 agonist, 3-(4-((6-benzyloxy-2′,6′-dimethyl-biphenyl-3-yl)methoxy)phenyl)propanoic acid (compound described in Example 340 of WO2004/041266) was used.
First, NFAT-TA was cut out from pNFAT-TA-Luc (manufactured by BD Bioscience Clontech) with HindIII and NheI, the recovered fragment was inserted into pGL3 basic neo digested with HindIII and NheI to give plasmid:pGL3 basic neo NFAT-TA-Luc.
This plasmid was used for “the CHO cell line (CHO-hGPR40 No. 104), which was made to express human GPR40” described in WO2004/041266, and a cell line CHO(dhfr-)/GPR40-NFAT-Luc, wherein a reporter gene was stably expressed by a method known per se, was prepared.
This cell line was diluted with a medium (nucleic acid-free MEM (Minimum Essential Medium)—α medium added with dialyzed FBS (Fetal Bovine Serum) to a final concentration of 10%) in such a manner that 2×10^4 cells/100 μl would be contained, dispensed to a white walled 96 well plate (manufactured by Coster) by 100 μl per well, and cultured overnight in a CO2 incubator. Then the medium was removed by suction from the 96 well plate, and a 10 mM test compound-dimethyl sulfoxide (manufactured by Wako Pure Chemical Industries, Ltd.) solution diluted with a medium (nucleic acid-free MEM—α medium added with bovine serum albumin (BSA) free of fatty acid to a final concentration of 0.1%) to each concentration was added by 50 μl per well. Further, 3-(4-((6-benzyloxy-2′,6′-dimethyl-biphenyl-3-yl)methoxy)phenyl)propanoic acid diluted with a medium (nucleic acid-free MEM-α (medium added with BSA free of fatty acid to a final concentration of 0.1%) to a final concentration of 40 nM was added to the 96 well plate by 50 μl per well.
After culture in a CO2 incubator for 4 hr, the culture medium was removed from the 96 well plate. Then, PicaGene (manufactured by TOYO INK MFG. CO., LTD.) was added to the 96 well plate, and the luciferase activity was determined using PerkinElmer ARVO (trade name, manufactured by PerkinElmer), based on which changes in the intracellular calcium concentration were evaluated. After assay of luciferase activity, nonlinear regression analysis was performed using PRISM 3 (trade name, manufactured by GraphPad) and IC50 value was calculated with changes in the intracellular calcium concentration as an index.
In the same manner as in Experimental Example 1, the IC50 value of the compound of the present invention was calculated.

The structures appear in SMILES notation. A value given as a limit tells only on which side of the number the result lay.

T1 sequence (O14842 whole entry): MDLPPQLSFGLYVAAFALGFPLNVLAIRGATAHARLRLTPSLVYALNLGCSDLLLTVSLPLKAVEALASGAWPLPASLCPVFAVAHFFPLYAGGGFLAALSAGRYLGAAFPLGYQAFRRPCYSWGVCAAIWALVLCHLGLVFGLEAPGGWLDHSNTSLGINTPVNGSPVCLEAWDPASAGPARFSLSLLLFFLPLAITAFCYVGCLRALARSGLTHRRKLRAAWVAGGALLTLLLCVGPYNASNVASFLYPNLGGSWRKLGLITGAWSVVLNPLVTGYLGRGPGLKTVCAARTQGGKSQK

`FC(F)(F)COc1ccc(-n2c(NCc3ccc(Br)cc3)nc3cc(Cl)c(Cl)cc32)cc1` [Example 103, N-(4-Bromobenzyl)-5,6-dichloro-1-[4-(2,2,2-trifluoroethoxy)phenyl]-1H-benzimidazol-2-amine]: the melting point is 118 to 120 °C. Besides, the IC50 at human GPR40 is below 100 nM.
The like results for `CC(C)Oc1ccc(-n2c(SCc3ccc(Cl)cc3)nc3cc(Cl)c(Cl)cc32)cc1` [Example 110, 5,6-Dichloro-2-[(4-chlorobenzyl)thio]-1-(4-isopropoxyphenyl)-1H-benzimidazole] were, in that order, 149 to 150 °C and below 100 nM.
Molecule `CC(C)(C)c1ccc(CNc2nc3ccc(Cl)cc3n2-c2ccc(OC(F)(F)C(F)F)cc2)cc1.Cl` [Example 106, N-(4-tert-Butylbenzyl)-6-chloro-1-[4-(1,1,2,2-tetrafluoroethoxy)phenyl]-1H-benzimidazol-2-amine hydrochloride] yielded a melting point of 130 to 133 °C. The IC50 on human GPR40 was below 100 nM.
For `CC(C)(C)c1ccc(CNc2nc3ccc(Cl)cc3n2-c2ccc(OCC(F)(F)F)cc2)cc1` [Example 78, N-(4-tert-Butylbenzyl)-6-chloro-1-[4-(2,2,2-trifluoroethoxy)phenyl]-1H-benzimidazol-2-amine], in that order: 151 to 152 °C and below 100 nM.
`CCCOc1ccc(-n2c(NCc3ccc(C(C)(C)C)cc3)nc3cc(Cl)ccc32)cc1` [Example 83, N-(4-tert-Butylbenzyl)-5-chloro-1-(4-propoxyphenyl)-1H-benzimidazol-2-amine] displayed a melting point of 190 to 191 °C. On human GPR40, the IC50 is below 100 nM.
Take `CCOc1ccc(-n2c(SCc3ccc(Cl)cc3)nc3cc(Cl)c(Cl)cc32)cc1` [Example 111, 5,6-Dichloro-2-[(4-chlorobenzyl)thio]-1-(4-ethoxyphenyl)-1H-benzimidazole]: the melting point is 131 to 132 °C. Moreover, the IC50 on human GPR40 was below 100 nM.
In the case of `CCOc1ccc(-n2c(NCc3ccc(Cl)cc3)nc3ccc(Cl)cc32)cc1` [Example 47, 6-Chloro-N-(4-chlorobenzyl)-1-(4-ethoxyphenyl)-1H-benzimidazol-2-amine], the melting point lay in the range of 135 to 136 °C. Also, on human GPR40, the IC50 is below 100 nM.
As to `CC(C)(C)c1ccc(CNc2nc3cc(Cl)c(Cl)cc3n2-c2ccc(OC(F)(F)F)cc2)cc1` [Example 105, N-(4-tert-butylbenzyl)-5,6-dichloro-1-[4-(trifluoromethoxy)phenyl]-1H-benzimidazol-2-amine], the melting point is 158 to 159 °C. In addition, the half-maximal inhibitory concentration (IC50) at human GPR40 is below 100 nM.
For `CCOc1ccc(-n2c(SCc3ccc(C(F)(F)F)nc3)nc3ccc(Cl)cc32)cc1` [Example 36, 6-chloro-1-(4-ethoxyphenyl)-2-({[6-(trifluoromethyl)pyridin-3-yl]methyl}thio)-1H-benzimidazole], in that order: 104 to 105 °C and below 100 nM.
Consider `CCCCOc1ccc(-n2c(NCc3ccc(Br)cc3)nc3cc(Cl)c(Cl)cc32)cc1` [Example 100, 1-(4-Butoxyphenyl)-5,6-dichloro-N-(4-bromobenzyl)-1H-benzimidazol-2-amine], for which the melting point lay within 161 to 162 °C. The IC50 at human GPR40 was below 100 nM.
With `CCOc1ccc(-n2c(NCc3ccc(Br)cc3)nc3cc(Cl)c(Cl)cc32)cc1` [Example 95, N-(4-Bromobenzyl)-5,6-dichloro-1-(4-ethoxyphenyl)-1H-benzimidazol-2-amine], the melting point lay within 92 to 93 °C. For the same molecule, the IC50 on human GPR40 is below 100 nM.
Molecule `FC(F)(F)COc1ccc(-n2c(SCc3ccc(Cl)cc3)nc3cc(Cl)c(Cl)cc32)cc1` [Example 131, 5,6-Dichloro-2-[(4-chlorobenzyl)thio]-1-[4-(2,2,2-trifluoroethoxy)phenyl]-1H-benzimidazole] displayed a melting point of 90 to 92 °C. Moreover, the IC50 at human GPR40 is below 100 nM.
For `COCOc1ccc(-n2c(SCc3ccc(Br)cc3)nc3ccc(Cl)cc32)cc1` [Example 8, 2-[(4-Bromobenzyl)thio]-6-chloro-1-[4-(methoxymethoxy)phenyl]-1H-benzimidazole], in that order: 123 to 124 °C and below 100 nM.
Molecule `CCCOc1ccc(-n2c(NCc3ccc(Cl)cc3)nc3ccc(Cl)cc32)cc1` [Example 74, 6-Chloro-N-(4-chlorobenzyl)-1-(4-propoxyphenyl)-1H-benzimidazol-2-amine] displayed a melting point of 130 to 131 °C. The IC50 at human GPR40 was below 100 nM.
`CCCCOc1ccc(-n2c(NCc3ccc(C(C)(C)C)cc3)nc3cc(Cl)ccc32)cc1` [Example 86, 1-(4-Butoxyphenyl)-N-(4-tert-butylbenzyl)-5-chloro-1H-benzimidazol-2-amine]: the melting point lay in the range of 158 to 159 °C. At human GPR40, the IC50 is below 100 nM.
The molecule `COc1ccc(-n2c(NCc3ccc(C(C)(C)C)cc3)nc3ccc(Cl)cc32)cc1` [Example 72, N-(4-tert-Butylbenzyl)-6-chloro-1-(4-methoxyphenyl)-1H-benzimidazol-2-amine] registered a melting point of 208 to 209 °C. Besides, the IC50 on human GPR40 is below 100 nM.
For `CC(C)(C)c1ccc(CNc2nc3ccc(Cl)cc3n2-c2ccc(OC(F)(F)F)cc2)cc1` [Example 80, N-(4-tert-Butylbenzyl)-6-chloro-1-[4-(trifluoromethoxy)phenyl]-1H-benzimidazol-2-amine], the melting point is 181 to 182 °C. In addition, the IC50 on human GPR40 was below 100 nM.
As for `CCCCOc1ccc(-n2c(NCc3ccc(Cl)cc3)nc3ccc(Cl)cc32)cc1` [Example 76, 1-(4-Butoxyphenyl)-6-chloro-N-(4-chlorobenzyl)-1H-benzimidazol-2-amine], the melting point lay within 122 to 123 °C. Besides, on human GPR40, the IC50 was below 100 nM.
The molecule `Clc1ccc(CSc2nc3ccc(Cl)cc3n2-c2ccc(C3OCCO3)cc2)cc1` [Example 132, 6-Chloro-2-[(4-chlorobenzyl)thio]-1-[4-(1,3-dioxolan-2-yl)phenyl]-1H-benzimidazole] gave a melting point of 129 to 130 °C. For the same molecule, at human GPR40, the IC50 is below 100 nM.
The like results for `CCCCOc1ccc(-n2c(SCc3ccc(Cl)cc3)nc3cc(Cl)c(Cl)cc32)cc1` [Example 113, 1-(4-Butoxyphenyl)-5,6-dichloro-2-[(4-chlorobenzyl)thio]-1H-benzimidazole] were, in that order, 99 to 100 °C and below 100 nM.
As to `CCCCOc1ccc(-n2c(NCc3ccc(Cl)cc3)nc3cc(Cl)c(Cl)cc32)cc1` [Example 101, 1-(4-Butoxyphenyl)-5,6-dichloro-N-(4-chlorobenzyl)-1H-benzimidazol-2-amine], the melting point fell in the range of 162 to 163 °C. For the same molecule, the IC50 at human GPR40 was below 100 nM.
